These results are taken from patent US20250084092A1, “ANNULATED PYRIDAZINE COMPOUND” (Nico Therapeutics, Inc., priority 2021, published 2025).

Structures can show the parent of a compound that is named as a salt.

For test [1], the system named is TNF-α production in THP-1 cells. The test can be described thus: TNF-α production inhibition test. It counts as cell-based. The conditions noted are these: Homo sapiens; PMA-treated THP-1 cells, LPS 50 ng/mL, 2 hours, TNF-α in supernatant by ELISA. The protocol:
PMA (phorbol myristate acetate, SIGMA, P1585) was added to THP-1 cells in an amount of 50 ng/mL to culture the cells for 2 days at 37° C. The culture medium was replaced with a serum-free RPMI-1640 medium, and a compound with a known concentration was added thereto to culture the cells at 37° C. for 15 minutes. LPS (Lipopolysaccharide SIMGA, L2880) was added so that each final concentration becomes 50 ng/mL, followed by culturing at 37° C. for 2 hours. The supernatants were collected to measure the concentration of TNF-α by ELISA (DuoSet ELISA human TNF-α, R&D Systems, DY210). The TNF-α concentrations were plotted against log concentrations of test compounds, and an IC50 value was calculated by sigmoid Emax model nonlinear regression analysis.

Test [2] has as its target T1, NLRP3 inflammasome (Homo sapiens, UniProt Q96P20).
T1 construct: endogenous in cells; host or cells: THP-1 cells (PMA-differentiated, stimulated with LPS and ATP)
The test can be described thus: THP-1 IL-1β production inhibition test. In kind it is cell-based. The conditions noted are these: PMA-treated THP-1 cells, LPS 50 ng/mL + ATP 5 mM, 2 hours, IL-1β in supernatant by ELISA. The protocol:
PMA (phorbol myristate acetate, SIGMA, P1585) was added to THP-1 cells in an amount of 50 ng/mL to culture the cells for 2 days at 37° C. […] LPS (Lipopolysaccharide, SIMGA, L2880) and ATP (Adenosine triphosphate, SIGMA, A2383) were added so that final concentrations become 50 ng/mL and 5 mM, respectively, followed by culturing at 37° C. for 2 hours. The supernatants were collected to measure the concentrations of IL-1β by ELISA (DuoSet ELISA human IL-1β, R&D Systems, DY201). The IL-1β concentrations were plotted against log concentrations of test compounds, and an IC50 value was calculated by sigmoid Emax model nonlinear regression analysis.
For orientation: ELISA stands for enzyme-linked immunosorbent assay.

T1 sequence (Q96P20 whole entry): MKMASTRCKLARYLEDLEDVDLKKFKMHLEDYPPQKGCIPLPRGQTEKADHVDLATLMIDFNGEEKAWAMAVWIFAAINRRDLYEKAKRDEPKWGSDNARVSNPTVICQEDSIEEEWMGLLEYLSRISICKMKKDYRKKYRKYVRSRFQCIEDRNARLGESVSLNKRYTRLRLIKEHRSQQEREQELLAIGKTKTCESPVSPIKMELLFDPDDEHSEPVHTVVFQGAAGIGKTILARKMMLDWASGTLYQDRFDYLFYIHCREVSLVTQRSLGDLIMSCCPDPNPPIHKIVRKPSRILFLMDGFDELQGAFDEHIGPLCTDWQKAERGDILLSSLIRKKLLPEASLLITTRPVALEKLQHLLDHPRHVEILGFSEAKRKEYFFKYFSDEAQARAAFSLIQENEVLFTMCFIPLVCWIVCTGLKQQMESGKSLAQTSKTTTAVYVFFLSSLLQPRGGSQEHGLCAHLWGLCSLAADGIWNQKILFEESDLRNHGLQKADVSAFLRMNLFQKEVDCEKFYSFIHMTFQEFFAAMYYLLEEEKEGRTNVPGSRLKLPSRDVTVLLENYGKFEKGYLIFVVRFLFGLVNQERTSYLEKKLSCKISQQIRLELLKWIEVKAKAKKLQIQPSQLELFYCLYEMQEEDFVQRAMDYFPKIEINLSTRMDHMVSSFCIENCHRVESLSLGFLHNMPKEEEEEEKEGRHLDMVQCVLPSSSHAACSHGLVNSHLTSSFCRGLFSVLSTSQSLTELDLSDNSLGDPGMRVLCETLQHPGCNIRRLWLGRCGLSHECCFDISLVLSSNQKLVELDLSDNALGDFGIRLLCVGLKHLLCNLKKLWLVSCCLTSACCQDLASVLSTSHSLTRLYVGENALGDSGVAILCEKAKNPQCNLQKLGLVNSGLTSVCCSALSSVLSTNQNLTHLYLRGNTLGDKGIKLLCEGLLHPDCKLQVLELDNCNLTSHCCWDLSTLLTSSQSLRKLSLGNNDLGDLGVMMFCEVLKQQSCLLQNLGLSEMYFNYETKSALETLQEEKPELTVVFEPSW

What is called IC50 is the concentration needed to halve the response being measured. For `Oc1cc(OC(F)F)ccc1-c1nnc(N[C@@H]2CCCC[C@H]2O)c2c1CCOC2` [Example 88, 5-(difluoromethoxy)-2-(4-{[(1R,2R)-2-hydroxycyclohexyl]amino}-7,8-dihydro-5H-pyrano[3,4-d]pyridazin-1-yl)phenol], the values for the 50% inhibitory concentration (IC50) in test [1] and in test [2] were at least 10000 nM and 1.8 nM, respectively. With `Oc1cc(C(F)(F)F)ccc1-c1nnc(N[C@@H]2CCCC[C@@H]2O)c2c1CCOC2` [4(1), 2-(4-{[(1R,2S)-2-hydroxycyclohexyl]amino}-7,8-dihydro-5H-pyrano[3,4-d]pyridazin-1-yl)-5-(trifluoromethyl)phenol], the IC50 in test [1] is at least 10000 nM; in test [2], 2.5 nM. Consider `Oc1cc(C(F)(F)F)ccc1-c1nnc(N[C@@H]2CCCC[C@H]2O)c2c1CSC2` [Example 111, 2-(4-{[(1R,2R)-2-hydroxycyclohexyl]amino}-5,7-dihydrothieno[3,4-d]pyridazin-1-yl)-5-(trifluoromethyl)phenol], for which the figures for the IC50 in test [1] and in test [2] were at least 10000 nM and 2.9 nM, respectively. As for `CN1CCc2c(-c3ccc(C(F)(F)F)cc3O)nnc(N[C@@H]3CCCC[C@H]3O)c2C1` [Example 73, 2-(4-{[(1R,2R)-2-hydroxycyclohexyl]amino}-6-methyl-5,6,7,8-tetrahydropyrido[3,4-d]pyridazin-1-yl)-5-(trifluoromethyl)phenol], the half-maximal inhibitory concentration (IC50) is at least 10000 nM in test [1] and 7.6 nM in test [2].

In the case of `CN1CCC[C@@H](Nc2nnc(-c3ccc(C(F)(F)F)cc3O)c3c2COCC3)C1` [Example 125], the half-maximal inhibitory concentration (IC50) in test [1] was at least 10000 nM; in test [2], 1.5 nM. Regarding `Oc1cc(OC(F)F)ccc1-c1nnc(N[C@@H]2CCCC[C@H]2O)c2c1CCCC2` [Example 83, 5-(difluoromethoxy)-2-(4-{[(1R,2R)-2-hydroxycyclohexyl]amino}-5,6,7,8-tetrahydrophthalazin-1-yl)phenol], the half-maximal inhibitory concentration (IC50) was at least 10000 nM in test [1] and 4.8 nM in test [2]. `COc1ccc(-c2nnc(N[C@@H]3CCCC[C@H]3O)c3c2CCCCC3)c(O)c1` [Example 47]: the half-maximal inhibitory concentration (IC50) in test [2] stood at 16 nM. As for `C[C@@H](O)CNc1nnc(-c2ccc(C(F)(F)F)cc2O)c2ccncc12` [16(1)], the 50% inhibitory concentration (IC50) in test [2] was 1.9 nM.

Consider `Oc1cc(C(F)(F)F)ccc1-c1nnc(N[C@H]2CCCC[C@@H]2O)c2c1COCC2` [66(1)], for which the IC50 in test [2] turned out to be 990 nM. In the case of `CCN1CCc2c(-c3ccc(C(F)(F)F)cc3O)nnc(N[C@@H]3CCCC[C@H]3O)c2C1` [Example 78], in test [2], the IC50 was 54 nM.

For the molecule `Oc1cc(C(F)(F)F)ccc1-c1nnc(N[C@@H]2CCOC[C@H]2O)c2c1CCOC2` [101(1)], the half-maximal inhibitory concentration (IC50) in test [2] was 2 nM.

In the case of `Oc1cc(C(F)(F)F)ccc1-c1nnc(N[C@@H]2CCCN(C3CC3)C2)c2c1CSC2` [Example 126, 2-(4-{[(3R)-1-cyclopropylpiperidin-3-yl]amino}-5,7-dihydrothieno[3,4-d]pyridazin-1-yl)-5-(trifluoromethyl)phenol], in test [2], the IC50 was found to be 7.1 nM. On the same count and under the same terms, with `Oc1cc(C(F)(F)F)ccc1-c1nnc(NC[C@H]2CCCO2)c2ccccc12` [Example 14] the figure was 7.6 nM. On the same count and under the same terms, the same measure for `C[C@@H](O)CNc1nnc(-c2ccc(C(F)(F)F)cc2O)c2c1CCC2` [Example 18]: 34 nM; for `C[C@]1(O)C[C@@H](Nc2nnc(-c3ccc(C(F)(F)F)cc3O)c3c2COCC3)C1` [56(1)]: 7 nM. On to `CC(=O)N1CCC[C@@H](Oc2nnc(-c3ccc(C(F)(F)F)cc3O)c3ccccc23)C1` [Example 65], for which the 50% inhibitory concentration (IC50) in test [2] stood at 48 nM. Same read-out and setting: with `Oc1cc(C(F)(F)F)ccc1-c1nnc(N[C@@H]2CCCN(C3CCC3)C2)c2c1CCCC2` [Example 71] the figure was 150 nM. As for `Oc1cc(C(F)(F)F)ccc1-c1nnc(N[C@@H]2CCCC[C@H]2O)c2c1CCOCC2` [Example 5, 2-(4-{[(1R,2R)-2-hydroxycyclohexyl]amino}-5,6,8,9-tetrahydrooxepino[4,5-d]pyridazin-1-yl)-5-(trifluoromethyl)phenol], the half-maximal inhibitory concentration (IC50) in test [1] is at least 10000 nM; in test [2] it was 4.7 nM. Taken in the same sequence, the figures for `Oc1cc(Cl)ccc1-c1nnc(N[C@@H]2CCCC[C@H]2O)c2c1CCOC2` [Example 70, 5-chloro-2-(4-{[(1R,2R)-2-hydroxycyclohexyl]amino}-7,8-dihydro-5H-pyrano[3,4-d]pyridazin-1-yl)phenol] were at least 10000 nM and 2.1 nM.

Turning to `Oc1cc(C(F)(F)F)ccc1-c1nnc(N[C@@H]2CCCC[C@H]2O)c2c1CNC2` [Example 98, 2-(4-{[(1R,2R)-2-hydroxycyclohexyl]amino}-6,7-dihydro-5H-pyrrolo[3,4-d]pyridazin-1-yl)-5-(trifluoromethyl)phenol], the IC50 in test [2] was 95 nM. Still for that read-out and setting: with `CN1CCC[C@@H](Nc2nnc(-c3ccc(C(F)(F)F)cc3O)c3c2CCOCC3)C1` [Example 105] the figure was 8.9 nM; with `Oc1cc(C(F)F)ccc1-c1nnc(N[C@@H]2CCCC[C@H]2O)c2c1COC2` [Example 115], 11 nM.

On to `O=S1(=O)CCC(Oc2nnc(-c3ccc(C(F)(F)F)cc3O)c3ccccc23)CC1` [Example 10], for which the IC50 in test [2] is 24 nM. As to `CN1CCC[C@@H](Nc2nnc(-c3ccc(C(F)F)cc3O)c3c2COCC3)C1` [Example 113], in test [2], the 50% inhibitory concentration (IC50) is 1.2 nM. `Oc1cc(C(F)(F)F)ccc1-c1nnc(N[C@@H]2CCCC[C@H]2O)c2c1CCCC2` [Example 134, 2-(4-{[(1R,2R)-2-hydroxycyclohexyl]amino}-5,6,7,8-tetrahydrophthalazin-1-yl)-5-(trifluoromethyl)phenol monohydrochloride]: the half-inhibitory concentration (IC50) in test [2] worked out at 4.6 nM.

For `Oc1cc(C(F)(F)F)ccc1-c1nnc(N[C@@H]2CCCC[C@H]2O)c2c1CCOC2` [Example 133, 2-(4-{[(1R,2R)-2-hydroxycyclohexyl]amino}-7,8-dihydro-5H-pyrano[3,4-d]pyridazin-1-yl)-5-(trifluoromethyl)phenol monohydrochloride], in test [2], the concentration for half-maximal inhibition (IC50) was determined as 1.3 nM. The same measure, in the same setting: the same measure for `C[C@@]1(O)CCCC[C@H]1Nc1nnc(-c2ccc(OC(F)F)cc2O)c2c1CCCC2` [Example 89]: 31 nM; for `Oc1cc(OC(F)(F)F)ccc1-c1nnc(N[C@@H]2CCC[C@H](O)C2)c2c1CCOC2` [Example 106]: 4.8 nM; for `Oc1cc(C(F)(F)F)ccc1-c1nnc(N[C@@H]2CCCC[C@H]2O)c2c1COCC2` [2(2), 2-(1-{[(1R,2R)-2-hydroxycyclohexyl]amino}-7,8-dihydro-5H-pyrano[3,4-d]pyridazin-4-yl)-5-(trifluoromethyl)phenol]: 14 nM. The same measure, in the same setting: with `CN1CCC[C@@H](Nc2nnc(-c3ccc(OC(F)(F)F)cc3O)c3c2COCC3)C1` [Example 128, 2-(4-{[(3R)-1-methylpiperidin-3-yl]amino}-7,8-dihydro-5H-pyrano[3,4-d]pyridazin-1-yl)-5-(trifluoromethoxy)phenol] the figure was 3.3 nM.

`CN1CCC[C@@H](Oc2nnc(-c3ccc(C(F)(F)F)cc3O)c3ccccc23)C1` [Example 67]: the IC50 in test [2] was 13 nM. The same measure, in the same setting: the same measure for `Oc1ccccc1-c1nnc(N[C@@H]2CCCC[C@H]2O)c2c1CCOC2` [Example 61]: 96 nM.

In the case of `Oc1cc(C(F)(F)F)ccc1-c1nnc(N[C@@H]2CCCN(C3COC3)C2)c2c1CCCC2` [Example 97, 2-(4-{[(3R)-1-(oxetan-3-yl)piperidin-3-yl]amino}-5,6,7,8-tetrahydrophthalazin-1-yl)-5-(trifluoromethyl)phenol], the IC50 in test [2] is 3.4 nM.

With `CS(=O)(=O)N1CCc2c(-c3ccc(C(F)(F)F)cc3O)nnc(N[C@@H]3CCCC[C@H]3O)c2C1` [Example 93, 2-[4-{[(1R,2R)-2-hydroxycyclohexyl]amino}-6-(methanesulfonyl)-5,6,7,8-tetrahydropyrido[3,4-d]pyridazin-1-yl]-5-(trifluoromethyl)phenol], the half-inhibitory concentration (IC50) in test [2] amounted to 200 nM.

`N#C[C@@H]1CCCC[C@H]1Nc1nnc(-c2ccc(C(F)(F)F)cc2O)c2c1CCOC2` [72(2)]: the IC50 in test [2] turned out to be 14 nM.

Consider `C[C@@H](O)CNc1nnc(-c2ccc(C(F)(F)F)cc2O)c2c1[C@H]1CC[C@@H]2CC1` [Example 24], for which the half-maximal inhibitory concentration (IC50) in test [2] is 74 nM. Still for that read-out and setting: the same measure for `COc1ccc(-c2nnc(N[C@H]3C[C@@](C)(O)C3)c3c2CCCC3)c(O)c1` [Example 33]: 100 nM; for `Oc1cc(C2CC2)ccc1-c1nnc(N[C@@H]2CCCC[C@H]2O)c2c1CCOC2` [52(1)]: 4.1 nM; for `Oc1cc(C(F)(F)F)ccc1-c1nnc(N[C@@H]2CCCC[C@H]2O)c2c1CCC1(COC1)C2` [Example 107]: 3.6 nM.

For the molecule `Oc1cc(C(F)(F)F)ccc1-c1nnc(N[C@@H]2CCOC[C@H]2O)c2c1COCC2` [101(2)], the half-maximal inhibitory concentration (IC50) in test [2] turned out to be 8.6 nM. The same measure, in the same setting: with `Oc1cc(OC(F)(F)F)ccc1-c1nnc(N[C@@H]2CCCC[C@H]2O)c2c1CCOCC2` [Example 68] the figure was 11 nM; with `C[C@@H](O)CNc1nnc(-c2ccc(C(F)(F)F)cc2O)c2c1CCCC2` [Example 17], 20 nM.
